Tests used:
Type in all cases: in vivo
kochia (Kochia scoparia) [1] = assay: Test A preemergence, visual plant response rating; conditions: for Kochia plant response rating: 125 g ai/ha, preemergence, 0 to 100 scale, 0 no effect, 100 complete control; for Kochia plant response rating (0 to 100 scale): 500 g ai/ha Preemergence, approx. 10 days
Outline: (§1)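 Formulated in a non-phytotoxic solvent mixture including surfactant, each test chemical was sprayed onto the soil surface after sowing, or onto seedlings 2 to 10 cm high. Roughly 10 days later, plants were compared with untreated controls and rated for injury from 0 (no effect) to 100 (complete control).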

[2] = system: barnyardgrass (Echinochloa crus-galli); assay: Test A preemergence, visual plant response rating; conditions: for Barnyardgrass plant response rating: 125 g ai/ha, preemergence, 0 to 100 scale, 0 no effect, 100 complete control; for Barnyardgrass plant response rating (0 to 100 scale): 500 g ai/ha Preemergence, approx. 10 days
Outline: as §1

[3] = system: ragweed (common ragweed, Ambrosia elatior); assay: Test A preemergence, visual plant response rating; conditions: for Ragweed plant response rating: 125 g ai/ha, preemergence, 0 to 100 scale, 0 no effect, 100 complete control; for Ragweed plant response rating (0 to 100 scale): 500 g ai/ha Preemergence, approx. 10 days
Outline: as §1

[4] = system: pigweed (Amaranthus retroflexus); assay: Test A preemergence, visual plant response rating; conditions: for Pigweed plant response rating: 125 g ai/ha, preemergence, 0 to 100 scale, 0 no effect, 100 complete control; for Pigweed plant response rating (0 to 100 scale): 500 g ai/ha Preemergence, approx. 10 days
Outline: as §1

[5] = system: foxtail, giant (giant foxtail, Setaria faberii); assay: Test A preemergence, visual plant response rating; conditions: for Foxtail, Giant plant response rating: 125 g ai/ha, preemergence, 0 to 100 scale, 0 no effect, 100 complete control; for Foxtail, Giant plant response rating (0 to 100 scale): 500 g ai/ha Preemergence, approx. 10 days
Outline: as §1

[6] = system: Italian ryegrass (Lolium multiflorum); assay: Test A preemergence, visual plant response rating; conditions: for Ryegrass, Italian plant response rating: 125 g ai/ha, preemergence, 0 to 100 scale, 0 no effect, 100 complete control; for Ryegrass, Italian plant response rating (0 to 100 scale): 500 g ai/ha Preemergence, approx. 10 days
Outline: as §1

rice (Oryza sativa) = assay: Test B flooded paddy test, visual plant response rating; conditions: 250 g ai/ha, Flood, applied to paddy water, 2-leaf stage, evaluated after 13 to 15 days
Procedure: (§2) Plant species in the flooded paddy test selected from rice (Oryza sativa), sedge, umbrella (small-flower umbrella sedge, Cyperus difformis), ducksalad (Heteranhera limosa), and barnyardgrass (Echinochloa crus-galli) were grown to the 2-leaf stage for testing. At time of treatment, test pots were flooded to 3 cm above the soil surface treated by application of test compounds directly to the paddy water, and then maintained at that water depth for the duration of the test. Treated plants and controls were maintained in a greenhouse for 13 to 15 days, after which time all species were compared to controls and visually evaluated. […] A dash (-) response means no test result.

[7] = system: barnyardgrass (Echinochloa crus-galli); assay: as above; conditions: 250 g ai/ha, Flood, applied to paddy water, 2-leaf stage, evaluated after 13 to 15 days
Procedure: as §2

[8] = system: sedge, umbrella (small-flower umbrella sedge, Cyperus difformis); assay: as above; conditions: 250 g ai/ha, Flood, applied to paddy water, 2-leaf stage, evaluated after 13 to 15 days
Procedure: as §2

[9] = system: ducksalad (Heteranhera limosa); assay: as above; conditions: 250 g ai/ha, Flood, applied to paddy water, 2-leaf stage, evaluated after 13 to 15 days
Procedure: as §2

kochia (Kochia scoparia) [10] = assay: Test A postemergence, visual plant response rating; conditions: for Kochia plant response rating (0 to 100 scale): 500 g ai/ha, postemergence, 0 is no effect, 100 is complete control; for Kochia plant response rating: Postemergence, 125 g ai/ha, 0 to 100 scale (0 no effect, 100 complete control)
Description: (§3) Seeds of plant species selected from barnyardgrass (Echinochloa crus-galli), kochia (Kochia scoparia), ragweed (common ragweed, Ambrosia elatior), Italian ryegrass (Lolium multiflorum), foxtail, giant (giant foxtail, Setaria faberii), foxtail, green (green foxtail, Setaria viridis), and pigweed (Amaranthus retroflexus) were planted into a blend of loam soil and sand and treated preemergence with a directed soil spray using test chemicals formulated in a non-phytotoxic solvent mixture which included a surfactant.
(§4) At the same time, plants selected from these weed species and also wheat (Triticum aestivum), corn (Zea mays), blackgrass (Alopecurus myosuroides), and galium (catchweed bedstraw, Galium aparine) were planted in pots containing the same blend of loam soil and sand and treated with postemergence applications of test chemicals formulated in the same manner. Plants ranged in height from 2 to 10 cm and were in the one- to two-leaf stage for the postemergence treatment. Treated plants and untreated controls were maintained in a greenhouse for approximately 10 days, after which time all treated plants were compared to untreated controls and visually evaluated for injury. Plant response ratings, summarized in Table A, are based on a 0 to 100 scale where 0 is no effect and 100 is complete control. A dash (-) response means no test result.

[11] = system: barnyardgrass (Echinochloa crus-galli); assay: Test A postemergence, visual plant response rating; conditions: for Barnyardgrass plant response rating (0 to 100 scale): 500 g ai/ha, postemergence, 0 is no effect, 100 is complete control; for Barnyardgrass plant response rating: Postemergence, 125 g ai/ha, 0 to 100 scale (0 no effect, 100 complete control)
Description: as §3, §4

[12] = system: galium (catchweed bedstraw, Galium aparine); assay: Test A postemergence, visual plant response rating; conditions: for Galium plant response rating (0 to 100 scale): 500 g ai/ha, postemergence, 0 is no effect, 100 is complete control; for Galium plant response rating: Postemergence, 125 g ai/ha, 0 to 100 scale (0 no effect, 100 complete control)
Description: as §3, §4

[13] = system: ragweed (common ragweed, Ambrosia elatior); assay: Test A postemergence, visual plant response rating; conditions: for Ragweed plant response rating (0 to 100 scale): 500 g ai/ha, postemergence, 0 is no effect, 100 is complete control; for Ragweed plant response rating: Postemergence, 125 g ai/ha, 0 to 100 scale (0 no effect, 100 complete control)
Description: as §3, §4

corn (Zea mays) = assay: Test A postemergence, visual plant response rating; conditions: for Corn plant response rating (0 to 100 scale): 500 g ai/ha, postemergence, 0 is no effect, 100 is complete control; for Corn plant response rating: Postemergence, 125 g ai/ha, 0 to 100 scale (0 no effect, 100 complete control)
Description: as §3, §4

[14] = system: blackgrass (Alopecurus myosuroides); assay: Test A postemergence, visual plant response rating; conditions: for Blackgrass plant response rating (0 to 100 scale): 500 g ai/ha, postemergence, 0 is no effect, 100 is complete control; for Blackgrass plant response rating: Postemergence, 125 g ai/ha, 0 to 100 scale (0 no effect, 100 complete control)
Description: as §3, §4

[15] = system: wheat (Triticum aestivum); assay: Test A postemergence, visual plant response rating; conditions: for Wheat plant response rating (0 to 100 scale): 500 g ai/ha, postemergence, 0 is no effect, 100 is complete control; for Wheat plant response rating: Postemergence, 125 g ai/ha, 0 to 100 scale (0 no effect, 100 complete control)
Description: as §3, §4

[16] = system: pigweed (Amaranthus retroflexus); assay: Test A postemergence, visual plant response rating; conditions: for Pigweed plant response rating (0 to 100 scale): 500 g ai/ha, postemergence, 0 is no effect, 100 is complete control; for Pigweed plant response rating: Postemergence, 125 g ai/ha, 0 to 100 scale (0 no effect, 100 complete control)
Description: as §3, §4

[17] = system: foxtail, giant (giant foxtail, Setaria faberii); assay: Test A postemergence, visual plant response rating; conditions: for Foxtail, Giant plant response rating (0 to 100 scale): 500 g ai/ha, postemergence, 0 is no effect, 100 is complete control; for Foxtail, Giant plant response rating: Postemergence, 125 g ai/ha, 0 to 100 scale (0 no effect, 100 complete control)
Description: as §3, §4

[18] = system: Italian ryegrass (Lolium multiflorum); assay: Test A postemergence, visual plant response rating; conditions: for Ryegrass, Italian plant response rating (0 to 100 scale): 500 g ai/ha, postemergence, 0 is no effect, 100 is complete control; for Ryegrass, Italian plant response rating: Postemergence, 125 g ai/ha, 0 to 100 scale (0 no effect, 100 complete control)
Description: as §3, §4

| Structure (SMILES) | Kochia plant response rating (kochia (Kochia scoparia) [1]) | Kochia plant response rating (0 to 100 scale) (kochia (Kochia scoparia) [1]) | Barnyardgrass plant response rating [2] | Barnyardgrass plant response rating (0 to 100 scale) [2] | Ragweed plant response rating [3] | Ragweed plant response rating (0 to 100 scale) [3] | Pigweed plant response rating [4] | Pigweed plant response rating (0 to 100 scale) [4] | Foxtail, Giant plant response rating [5] | Foxtail, Giant plant response rating (0 to 100 scale) [5] | Ryegrass, Italian plant response rating [6] | Ryegrass, Italian plant response rating (0 to 100 scale) [6] | Plant response rating, Rice (0 to 100 scale, 0 is no effect, 100 is complete control) (rice (Oryza sativa)) | Plant response rating, Barnyardgrass (0 to 100 scale, 0 is no effect, 100 is complete control) [7] | Plant response rating, Sedge, Umbrella (0 to 100 scale, 0 is no effect, 100 is complete control) [8] | Plant response rating, Ducksalad (0 to 100 scale, 0 is no effect, 100 is complete control) [9] | Kochia plant response rating (0 to 100 scale) (kochia (Kochia scoparia) [10]) | Kochia plant response rating (kochia (Kochia scoparia) [10]) | Barnyardgrass plant response rating (0 to 100 scale) [11] | Barnyardgrass plant response rating [11] | also measured |
| --- | --- | --- | --- | --- | --- | --- | --- | --- | --- | --- | --- | --- | --- | --- | --- | --- | --- | --- | --- | --- | --- |
| CON=C(c1cc(C(F)(F)F)ccc1Cl)c1c(O)c(C)nn(C)c1=O [Compound 73] | 0 | 20 | 20 | 80 | 30 | 90 | 70 | 100 | 20 | 80 | 20 | 50 | 0 | 0 | 0 | 0 | 80 | 60 | 60 | 20 | Galium plant response rating (0 to 100 scale) [12]: 70; Galium plant response rating [12]: 70; Ragweed plant response rating (0 to 100 scale) [13]: 80; Ragweed plant response rating [13]: 50; Corn plant response rating (0 to 100 scale) (corn (Zea mays)): 20; Corn plant response rating (corn (Zea mays)): 0; Blackgrass plant response rating (0 to 100 scale) [14]: 90; Blackgrass plant response rating [14]: 30; Wheat plant response rating (0 to 100 scale) [15]: 40; Wheat plant response rating [15]: 20; Pigweed plant response rating (0 to 100 scale) [16]: 90; Pigweed plant response rating [16]: 80; Foxtail, Giant plant response rating (0 to 100 scale) [17]: 60; Foxtail, Giant plant response rating [17]: 30; Ryegrass, Italian plant response rating (0 to 100 scale) [18]: 90; Ryegrass, Italian plant response rating [18]: 40 |
| CON=C(c1c(O)c(C)nn(C)c1=O)c1cccc2ccc(Cl)cc12 [Compound 111] | 20 | 100 | 60 | 70 | 70 | 100 | 100 | 100 | 50 | 90 | 30 | 70 | 0 | 0 | 0 | 0 | 60 | 40 | 80 | 50 | Galium plant response rating (0 to 100 scale) [12]: 90; Galium plant response rating [12]: 80; Ragweed plant response rating (0 to 100 scale) [13]: 80; Ragweed plant response rating [13]: 80; Corn plant response rating (0 to 100 scale) (corn (Zea mays)): 30; Corn plant response rating (corn (Zea mays)): 20; Blackgrass plant response rating (0 to 100 scale) [14]: 100; Blackgrass plant response rating [14]: 80; Wheat plant response rating (0 to 100 scale) [15]: 60; Wheat plant response rating [15]: 0; Pigweed plant response rating (0 to 100 scale) [16]: 90; Pigweed plant response rating [16]: 60; Foxtail, Giant plant response rating (0 to 100 scale) [17]: 70; Foxtail, Giant plant response rating [17]: 60; Ryegrass, Italian plant response rating (0 to 100 scale) [18]: 90; Ryegrass, Italian plant response rating [18]: 70 |
| CO/N=C(\c1ccsc1C)c1c(O)c(C)nn(C)c1=O [Compound 43] | 0 | 0 | 0 | 0 | 0 | 20 | 0 | 30 | 0 | 0 | 0 | 0 | 0 | 0 | 0 | 0 | 20 | 0 | 0 | 0 | Galium plant response rating (0 to 100 scale) [12]: 50; Galium plant response rating [12]: 20; Ragweed plant response rating (0 to 100 scale) [13]: 30; Ragweed plant response rating [13]: 20; Corn plant response rating (0 to 100 scale) (corn (Zea mays)): 0; Corn plant response rating (corn (Zea mays)): 0; Blackgrass plant response rating (0 to 100 scale) [14]: 20; Blackgrass plant response rating [14]: 0; Wheat plant response rating (0 to 100 scale) [15]: 0; Wheat plant response rating [15]: 0; Pigweed plant response rating (0 to 100 scale) [16]: 60; Pigweed plant response rating [16]: 20; Foxtail, Giant plant response rating (0 to 100 scale) [17]: 0; Foxtail, Giant plant response rating [17]: 0; Ryegrass, Italian plant response rating (0 to 100 scale) [18]: 30; Ryegrass, Italian plant response rating [18]: 0 |
| CCO/N=C(/c1c(O)c(C)nn(C)c1=O)c1ccc(F)c2ccccc12 [Compound 84] | 20 | 60 | 60 | 100 | 80 | 100 | 100 | 100 | 100 | 100 | 100 | 100 | 0 | 0 | 0 | 0 | 80 | 70 | 80 | 60 | Galium plant response rating (0 to 100 scale) [12]: 100; Galium plant response rating [12]: 90; Ragweed plant response rating (0 to 100 scale) [13]: 100; Ragweed plant response rating [13]: 90; Corn plant response rating (0 to 100 scale) (corn (Zea mays)): 30; Corn plant response rating (corn (Zea mays)): 20; Blackgrass plant response rating (0 to 100 scale) [14]: 100; Blackgrass plant response rating [14]: 90; Wheat plant response rating (0 to 100 scale) [15]: 50; Wheat plant response rating [15]: 40; Pigweed plant response rating (0 to 100 scale) [16]: 90; Pigweed plant response rating [16]: 80; Foxtail, Giant plant response rating (0 to 100 scale) [17]: 80; Foxtail, Giant plant response rating [17]: 70; Ryegrass, Italian plant response rating (0 to 100 scale) [18]: 100; Ryegrass, Italian plant response rating [18]: 90 |
